{"source": "paper PMC12505664", "about": "“Enflicoxib for the long-term management of canine osteoarthritis—External validation of a population pharmacokinetic model in dogs with osteoarthritis” (Frontiers in Veterinary Science, 2025)", "key": {"canine osteoarthritis": {"tested_on": "canine osteoarthritis", "set-up": "method as in Salichs et al., Vet Rec. 2022", "settings": "Mavacoxib group n=58, ref Salichs et al., Vet Rec. 2022, cited from earlier work"}, "[1]": {"set-up": "method as in PMID 34160092", "settings": "Beagle dogs, oral enflicoxib; cited from earlier work"}, "[2]": {"settings": "overdose study, repeated weekly administrations, Beagle dogs; cited from earlier work"}, "[3]": {"test": "Plasma levels of enflicoxib and pyrazol metabolite in the 6-month field clinical study (HPLC-MS/MS)", "type": "in vivo, client-owned dogs with OA", "settings": "for Mean plasma level: oral 8 mg/kg then 4 mg/kg weekly", "description": "A prospective, multisite, blinded, randomized, placebo-controlled, parallel-group field study was performed in accordance with Good Clinical Practice standards ([16]). The study aimed to confirm the safety and efficacy of enflicoxib treatment of pain and inflammation associated with naturally occurring canine OA in dogs of any breed and sex treated for 6 months. The protocol was approved by the regulatory authorities of both Portugal and Hungary. Written informed consent was obtained from all dog owners prior to enrolment of their dogs. Dogs remained under the care of their owners at home throughout the study.\nBefore enrolment, all dogs underwent a physical examination, and blood and urine samples were taken. After enrollment, dogs were randomized in a predefined enflicoxib:placebo ratio of 3:1. Enflicoxib was dosed orally at weekly intervals, with an initial dose of 8 mg/kg, followed by once-a-week maintenance doses of 4 mg/kg for a total of 26 weeks. Dogs in the enflicoxib group received Daxocox® tablets (Ecuphar/Animalcare group), while dogs in the placebo group received the same formulation without the active ingredient under the same posology (number of tablets and dosing interval). […] No positive control was included due to difficulties in maintaining blinding with products under different posology during the entire follow-up period.\nTwo blood samples for popPK analysis were collected from all animals enrolled in the study one on day 44(±2 days)/1.5 months, (similar to the last sample taken in the previous clinical studies), after clinical assessment of pain and lameness and prior to treatment administration and another one at the end of the study on day 189/6 months (±2 days), or individual premature study termination day. Day 189 corresponds to the trough concentration after the 27th weekly administration (PK sample taken at the end of the weekly dosing interval). Meanwhile, day 44 corresponds to a PK sample obtained 2 days after the 7th weekly administration. The veterinary practices had the necessary resources and adequate freezing equipment for the long-term storage of plasma samples. Blood samples were collected into potassium-3-ethylenediaminetetraacetic acid (K3EDTA) labeled tubes, which were immediately centrifuged at ~2,500g for 10 min (at +4 °C whenever possible) to obtain plasma. Once received, plasma was transferred into two labeled propylene tubes (aliquots 1 and 2). Each plasma aliquot was stored frozen at a nominal temperature of −20 (±2) °C until shipment to the Laboratory of analysis Welab Barcelona (Parc Científic de Barcelona, C/Baldiri Reixac 4-12, 08028, Barcelona). The maximum storage time for the samples was 376 days at nominally −20 °C/−80 °C. Considering the long-term stability of enflicoxib and its metabolite in dog plasma samples stored at −20 °C, which spans a minimum of 402 days, the stability of the study samples was guaranteed for the entire duration of the study. Samples were analyzed without information on the treatment allocation (laboratory-blinded study).\nEnflicoxib and pyrazol metabolite plasma levels were measured by a previously fully validated high-performance liquid chromatography (HPLC)-method coupled with tandem mass spectrometry (MS/MS) detection as described in Homedes et al. ([4])."}, "[4]": {"set-up": "method as in PMID 34160092", "settings": "previously validated method, cited from earlier work"}, "[5]": {"test": "Maximum a posteriori Bayesian (MAPB) estimation of individual PK parameters in dogs with OA", "type": "in vivo", "from_the_text": "As a similar PK behavior between populations was concluded, the same popPK model could be used, and a Bayesian approach was used for the determination of individual enflicoxib and the pyrazol metabolite exposure in osteoarthritic animals.\nA maximum a posteriori Bayesian (MAPB) estimation using the post hoc subroutine in NONMEM was used to provide the individual PK parameters in osteoarthritic dogs.\nMAPB estimation applied likelihood maximization in the form of minimizing the objective function (minus 2 log likelihood), to estimate individual PK parameters of each dog with OA. In this analysis, the MAPB estimation incorporated both a priori PK information, that is, the established PK model of enflicoxib and the pyrazol metabolite in healthy Beagle dogs, and a posteriori PK data, which corresponds to PK data from osteoarthritic dogs. The individual PK parameters along with individual predicted PK profiles for each dog treated with enflicoxib were calculated by fitting the animal PK dataset, which includes dosing, sampling times, parent and metabolite levels, and covariate information, to the established population enflicoxib and the pyrazol metabolite PK model in healthy Beagle dogs.\nThe maximum a posteriori Bayesian (MAPB) estimation was applied to provide the most likely individual PK profile for each dog with OA, using the “POSTHOC” subroutine and $ESTIMATION command set to MAXEVAL=0 in NONMEM.\nIndividual PK parameters and individual PK profiles of enflicoxib and the pyrazol metabolite were estimated for each dog.\nFinally, the Bayesian approach enabled the estimation of the main individual PK parameters of enflicoxib and the pyrazol metabolite. Using these individual PK parameters, predicted profiles for each animal were estimated, allowing the calculation of the derived exposure parameters, such as Cmax, Cmin, AUCτ, and T1/2 in all treated dogs. The distribution and the mean estimates of enflicoxib and the pyrazol metabolite PK parameters at selected time points are depicted in Supplementary Figures S3, S4, respectively."}, "[6]": {"set-up": "method as in PMID 34854245", "settings": "popPK model, cited from earlier work"}, "[7]": {"settings": "weeks 12–26, Bayesian predicted profiles"}, "[8]": {"settings": "metabolite, typical value at 9.9 kg"}}, "note": "Read-outs that look alike come from different tables or passages of the source."}
{"smiles": "NS(=O)(=O)c1ccc(-n2nc(C(F)(F)F)cc2-c2ccc(F)cc2)cc1", "note": "[Mavacoxib]", "values": [{"measurement": "Number of animals presenting AEs (%): Emesis or nausea", "setting": "canine osteoarthritis; AEs classified A, B or O", "result": "4 (6.9)"}, {"measurement": "Emesis and nausea: Number of events", "setting": "canine osteoarthritis; AEs related to the GI system", "result": 6}, {"measurement": "Diarrhoea / pasty stools: Duration range", "setting": "canine osteoarthritis", "result": "1 to 4", "unit": "days"}, {"measurement": "Diarrhoea / pasty stools: Mean duration", "setting": "canine osteoarthritis", "result": 2, "unit": "days"}, {"measurement": "Diarrhoea / pasty stools: Number of events", "setting": "canine osteoarthritis", "result": 3}, {"measurement": "Diarrhoea / pasty stools: Treatment needed", "setting": "canine osteoarthritis", "result": 0}, {"measurement": "Emesis and nausea: Mean duration", "setting": "canine osteoarthritis", "result": 4.2, "unit": "days"}, {"measurement": "Emesis and nausea: Treatment needed", "setting": "canine osteoarthritis", "result": 2}, {"measurement": "Number of animals presenting AEs (%): Abdominal pain", "setting": "canine osteoarthritis", "result": 0}, {"measurement": "Number of animals presenting AEs (%): Acute renal failure", "setting": "canine osteoarthritis", "result": "1 (1.7)"}, {"measurement": "Number of animals presenting AEs (%): Apathy", "setting": "canine osteoarthritis", "result": 0}, {"measurement": "Number of animals presenting AEs (%): Constipation", "setting": "canine osteoarthritis", "result": "1 (1.7)"}, {"measurement": "Number of animals presenting AEs (%): Diarrhoea or pasty stools", "setting": "canine osteoarthritis", "result": "3 (5.2)"}, {"measurement": "Number of animals presenting AEs (%): Increased salivation", "setting": "canine osteoarthritis", "result": 0}, {"measurement": "Number of animals presenting AEs (%): Polydipsia", "setting": "canine osteoarthritis", "result": 0}, {"measurement": "Number of animals presenting AEs (%): Total", "setting": "canine osteoarthritis", "result": "6 (10.3)"}, {"measurement": "Number of animals presenting AEs (%): Weight loss", "setting": "canine osteoarthritis", "result": 0}, {"measurement": "Emesis and nausea: Duration range", "setting": "canine osteoarthritis; upper end one animal", "result": "1 to 14", "unit": "days"}]}
{"smiles": "NS(=O)(=O)c1ccc(-n2nc(C(F)(F)F)cc2-c2ccc(F)cc2F)cc1", "note": "[Pyrazol metabolite]", "values": [{"measurement": "mean terminal elimination half-life (t 1/2)", "setting": "[1]", "result": 17, "unit": "days"}, {"measurement": "Dose proportionality of pharmacokinetics", "setting": "[2]", "result": "dose-proportional pharmacokinetics"}, {"measurement": "Mean plasma level", "setting": "[3]; day 44 (2 days after 7th weekly administration), N=75", "result": "2,105.6 ng/mL"}, {"measurement": "Max plasma level", "setting": "[3]; day 44, N=75", "result": "4,728.5 ng/mL"}, {"measurement": "Min plasma level", "setting": "[3]; day 44, N=75", "result": 2.5, "unit": "ng/mL"}, {"measurement": "Probability (%) concentration < 10 ng/mL", "setting": "[3]; day 44, N=75", "result": 4.0, "unit": "%"}, {"measurement": "Probability (%) concentration < LOQ", "setting": "[3]; day 44, N=75", "result": 4.0, "unit": "%"}, {"measurement": "Probability (%) concentration < 10 ng/mL", "setting": "[3]; day 44, N=75, listed as pyrazol metabolite", "result": 4, "unit": "%"}, {"measurement": "Mean plasma level", "setting": "[3]; day 93 (premature study termination), N=2", "result": "3,928.8 ng/mL"}, {"measurement": "Max plasma level", "setting": "[3]; day 93, N=2", "result": "5,029.0 ng/mL"}, {"measurement": "Min plasma level", "setting": "[3]; day 93, N=2", "result": "2,828.5 ng/mL"}, {"measurement": "Probability (%) concentration < 10 ng/mL", "setting": "[3]; day 93, N=2", "result": 0.0, "unit": "%"}, {"measurement": "Probability (%) concentration < LOQ", "setting": "[3]; day 93, N=2", "result": 0.0, "unit": "%"}, {"measurement": "Mean plasma level", "setting": "[3]; day 189 (trough after 27th weekly administration), N=65", "result": "2,317.4 ng/mL"}, {"measurement": "Max plasma level", "setting": "[3]; day 189, N=65", "result": "7,541.8 ng/mL"}, {"measurement": "Min plasma level", "setting": "[3]; day 189, N=65", "result": 2.5, "unit": "ng/mL"}, {"measurement": "Probability (%) concentration < 10 ng/mL", "setting": "[3]; day 189, N=65", "result": 4.6, "unit": "%"}, {"measurement": "Probability (%) concentration < LOQ", "setting": "[3]; day 189, N=65", "result": 1.5, "unit": "%"}, {"measurement": "Probability (%) concentration < 10 ng/mL", "setting": "[3]; day 189, N=65, listed as pyrazol metabolite", "result": 5, "unit": "%"}, {"measurement": "Stability in dog plasma", "setting": "[4]; following 4 freeze–thaw cycles", "result": "stable"}, {"measurement": "Stability in dog plasma", "setting": "[4]; nominally −20 °C for 402 days", "result": "stable"}, {"measurement": "Stability in dog plasma", "setting": "[4]; room temperature for 4 h", "result": "stable"}, {"measurement": "Long-term stability in dog plasma samples", "setting": "[4]; stored at −20 °C", "result": "≥ 402", "unit": "days"}, {"measurement": "Time-dependent pharmacokinetics or over-accumulation", "setting": "[5]; 6 months of weekly treatment", "result": "no evidence of time-dependent pharmacokinetics or over-accumulation"}, {"measurement": "Time to PK steady-state", "setting": "[5]; weekly treatment", "result": "10–12 weeks"}, {"measurement": "AUCτ", "setting": "[5]; [7]", "result": "16,742 ng/ml·day"}, {"measurement": "Cmax", "setting": "[5]; [7]", "result": "~ 2,490 ng/mL"}, {"measurement": "Cmin", "setting": "[5]; [7]", "result": "2,243 ng/mL"}, {"measurement": "IIV of CLM/F (apparent clearance)", "setting": "[6]; interindividual variability as % CV", "result": 31, "unit": "%"}, {"measurement": "Residual variability", "setting": "[6]; log error model, % CV", "result": 20, "unit": "%"}, {"measurement": "CLM/F = θ7·(WGT/9.9)^0.75, θ7 estimate (apparent clearance)", "setting": "[6]; [8]", "result": 0.111, "unit": "L/h"}, {"measurement": "VM/F = θ4·(WGT/9.9)^1.0, θ4 estimate (apparent volume of distribution, central compartment)", "setting": "[6]; [8]", "result": 6.59, "unit": "L"}]}
